Laboratory results from patent US20260219274A1, “POLYOL SWEETNERS AND CARDIOVASCULAR AND THROMBOTIC EVENT RISK” (THE CLEVELAND CLINIC FOUNDATION, priority 2023, published 2026).

What was measured:
[1] = system: human platelet-rich plasma; test: Aggregometry in platelet-rich plasma; type: cell-based; settings: PRP incubated with the polyol versus vehicle, submaximal agonist
Procedure: Aggregometry in platelet rich plasma (PRP) was performed as previously described^40 and outlined in supplemental methods.
Platelet rich plasma (PRP) was isolated as previously described.^5 Whole blood was drawn from healthy donors and anticoagulated with sodium citrate (0.109 M). PRP was prepared by centrifuging at 100×g for 10 min at 22° C. Platelet poor plasma (PPP) was obtained by additional centrifugation of the remaining blood samples at 11,000×g for 2 min. Next, platelets were counted with a hemocytometer and the platelet concentration adjusted to 2×10^8/mL using PPP. PRPs were then pre-incubated with xylitol (Catalogue #X3375-5G, Sigma, St. Louis, MO, USA) at indicated concentrations or vehicle (saline) for 30 min at 22° C. After exposure to xylitol or vehicle, PRPs were maintained in suspension with constant stirring (600 rpm) at 37° C. Subsequently, platelet aggregation was induced by adding the agonists ADP (up to 5 μM, Catalogue #384, Chronolog, Havertown, PA, US) or TRAP6 (TFLLR-NH2, up to 10 μM, Catalogue #464, Tocris, Bristol, UK). For all platelet aggregometry experiments, blood was always processed within approx. 30 minutes of collection, and isolated platelets were used within 120 minutes of isolation. When used, pairs of vehicle vs. xylitol incubated PRP were always incubated and analyzed together (beginning, middle, end of platelet prep use) and after 120 minutes post isolation, PRPs were not used anymore.
Platelet rich plasma (PRP) and platelet poor plasma (PPP) was prepared as previously described with sodium citrate (0.109 M) as anticoagulant^51. Platelets were counted and concentrations adjusted to 2×10^8/mL with PPP. PRPs were pre-incubated with erythritol (Catalogue #E7500, Sigma, St. Louis, MO, USA), glucose (Catalogue #G7021, Sigma, St. Louis, MO, USA) or 1,5-AHG (Catalogue #29874, Cayman Chemical, Ann Arbor, Michigan, USA) (at indicated concentrations) or vehicle (saline) for 30 min at 22° C. After pre-incubation PRPs were maintained in suspension with constant stirring (600 rpm) at 37° C. and platelet aggregation was initiated using ADP (up to 5 μM, Catalogue #384, Chronolog, Havertown, PA, US) or TRAP6 (TFLLR-NH2, up to […], Catalogue #464, Tocris, Bristol, UK).

[2] = system: stable subjects undergoing elective diagnostic cardiac evaluations (Discovery Cohort); settings: in vivo
Description: Our first study employed a Discovery Cohort, where we used untargeted metabolomics (semi-quantitative analyses) to analyze plasma samples from 1,157 stable subjects to identify circulating analytes whose levels were associated with future development of adverse cardiovascular events over an ensuing 3 year period. The Discovery Cohort included sequential stable patients (ages 18 years or above) undergoing elective diagnostic coronary angiography for risk evaluation at a quaternary referral center between 2001 and 2007 (GeneBank at the Cleveland Clinic; clinicaltrials.gov identifier: NCT00590200) with clinical and longitudinal outcomes.
In both, the Discovery and Validation Cohorts, Major Adverse Cardiovascular Events (MACE) were defined as death, nonfatal myocardial infarction, or nonfatal cerebrovascular accident (stroke) during follow-up. Adjudicated long term survival data were collected through medical records review and Social Security Death Index query. Cardiovascular disease (CVD) was indicated as presence of peripheral artery disease or coronary artery disease, indicated as any clinical history of myocardial infarction, coronary revascularization (including percutaneous coronary intervention, coronary artery bypass surgery), or angiographic evidence of significant stenosis (≥50%) in 1 or more major coronary arteries. Estimated glomerular filtration rate (eGFR) in both cohorts was calculated based on the recent Chronic Kidney Disease Epidemiology Collaboration 2021 CKD-EPI Creatinine equation.^37 Platelet-related hematology analyses were performed with an Advia 120 hematology analyzer (Siemens, New York, NY).^38 Use of anti-platelet agents (=1556) was defined as either aspirin or a P2Y12 agent or both. All observational studies in this example are reported in compliance with the STrengthening the Reporting of Observational studies in Epidemiology (STROBE)-Statement.^39 Information on gender of study participants of the Discovery and Validation Cohorts is reported in Table 1-3.
For untargeted mass spectrometry analyses, subject plasma samples were derivatized and run on GC-MS analyses as previously described.^19 Raw data files were processed using the metabolomics BinBase database.^45
Continuous variables are summarized as median (interquartile range [IQR]), and categorical variables are presented as %. Difference between groups (e.g. tertiles or quartiles) were examined using Kruskal Wallis test for continuous variables and chisq (χ^2) test for categorical variables. Kaplan-Meier analysis with Cox proportional-hazards regression was used for time-to-event analysis to determine hazard ratios (HR) and 95% confidence intervals (CI) for incident MACE. Adjustments included traditional cardiovascular risk factors (age, sex, diabetes mellitus, systolic blood pressure, low-density lipoprotein cholesterol levels, high-density lipoprotein cholesterol levels, triglyceride levels, smoking status) and high-sensitivity C-reactive protein (hsCRP). We confirmed that the proportionality hazards assumptions were met using the Schoenfeld residuals against the transformed time. Mann-Whitney U-test or Wilcoxon matched-pairs signed rank test were applied to continuous variables to examine differences between 2 groups. Kruskal-Wallis test with Dunn's post hoc test was used for pairwise multiple comparisons of ranked data. Two-way ANOVA with Šidák's multiple comparison post hoc test was used for multiple-group comparisons of aggregometry responses using different concentrations of agonists. For analysis of collagen-dependent platelet adhesion in whole blood, a two-way repeated measures ANOVA with Sidák's multiple comparison post hoc test was used. All reported measurements represent distinct samples. Data analyses were performed with R software (version 4.0.2) and GraphPad Prism software (version 9.1.2). A two-sided P<0.05 was considered statistically significant. […]

clinical = settings: both, human, in vivo
Procedure: (§1) This single center trial was approved by the Cleveland Clinic Institutional Review Board (clinicaltrials.gov identifier NCT04731363). Following subject consent (nonsmokers without CVD, hypertension, or diabetes), blood was drawn after overnight fast and 30 min following consumption of water containing 30 g of […] glucose (n=10, 30.1±11 years of age, 40% male), or erythritol (n=10, 30.5±8 years of age, 50% male), a quantity commonly found in erythritol-sweetened foods and the daily intake of some subjects based on 2013-2014 National Health and Nutrition Examination Survey (NHANES) data and FDA filings.(4,5).
(§2) Following erythritol consumption, postprandial circulating erythritol levels (assessed using stable-isotope-dilution liquid-chromatography tandem mass spectrometry (LC/MS/MS)3) were >1000-fold increased compared to baseline levels (median[inter quartile range], 6480[5930-7300]μM versus 3.75[3.35-3.87]μM, P<0.0001). In contrast, circulating erythritol levels remained similar before versus after glucose consumption (3.0[2.6-4.0]μM versus 2.9[2.7-3.8]μM, P=0.87; glucose levels before versus after 86.5(81.8-93.0) versus 127.0(122.3-132.3), P=0.002). […] In contrast, glucose consumption had no effect on platelet aggregation.

[3] = system: platelets of healthy volunteers; test: Erythritol or glucose ingestion: platelet aggregation and granule release; type: in vivo, human
Procedure: as §1, §2

Row | glucose levels (clinical) | glucose levels (clinical; 30 min) | Structure (SMILES) | stimulus-dependent platelet aggregation response to ADP and TRAP6 [1] | association with cardiovascular event risks / MACE [2] | platelet aggregation responses to ADP and TRAP6 after ingestion ([3]; 30 min after 30 g vs baseline) | stimulus-dependent release of alpha granule marker CXCL4 ([3]; TRAP6 (7.5 μM), ADP (2.0 μM), after ingestion) | stimulus-dependent release of dense granule marker serotonin ([3]; TRAP6 and ADP, after ingestion)
1 |  |  | OC[C@H]1OC[C@H](O)[C@@H](O)[C@@H]1O [1,5-AHG, 1,5-anhydroglucitol, reference compound] | no effect | negatively associated |  |  | 
2 | 86.5(81.8-93.0) | 127.0(122.3-132.3) | O=C[C@H](O)[C@@H](O)[C@H](O)[C@H](O)CO [glucose, reference compound] | no effect |  | no effect | no differences | no differences
